Test results from patent US11299510B2, “Substituted pyridopyrrolopyrimidine ribonucleosides for therapeutic uses” (USTAV ORGANICKE CHEMIE A BIOCHEMIE AV CR, V.V.I., priority 2018, dated 2022).

What was measured:
Assay type in all cases: cell-based
[1] = test system: A549 (human lung adenocarcinoma); assay: cytotoxic MTS test, A549; settings: A549 cells
Source text: (§1) To evaluate the antitumor activity of newly prepared compounds for in vitro conditions, we used cytotoxic MTS test (Nosková V. et al., Neoplasma 2002, 49, 418-425) on cell lines derived from normal tissues or tumors. Specifically, cell lines K562 (human acute myeloid leukemia); K562-Tax (human acute myeloid leukemia, paclitaxel resistant subline, overexpress multiple drug resistant protein PgP); CEM (T-lymfoblastic leukemia); CEM-DNR-bulk (T-lymfoblastic leukemia, doxorubicin resistant); A549 (human lung adenocarcinoma); HCT116p53 wt (human colorectal cancer, wild-type); HCT116p53−/−(human colorectal cancer, mutant p53) a U2OS (human bone osteosarcoma) were used. Express characteristics, susceptibility profiles of classic antitumor drugs as well as methodology of cytotoxic MTS test have been repeatedly published (Denizot, F.; Lang, R., J. Immunol. Meth. 1986, 89, 271-277; Noskova, V., see above; Šarek J. et al., J, Med. Chem., 2003, 46, 5402-5415).

[2] = test system: BJ (normal human fibroblasts); assay: cytotoxic MTS test, BJ; settings: BJ cells
[3] = test system: CCRF-CEM; assay: cytotoxic MTS test, CCRF-CEM; settings: Homo sapiens; CCRF-CEM cells
Source text: as §1

[4] = test system: CEM-DNR-bulk (T-lymfoblastic leukemia, doxorubicin resistant); assay: cytotoxic MTS test, CEM-DNR; settings: Homo sapiens; CEM-DNR cells
Source text: as §1

[5] = test system: HCT116p53 wt (human colorectal cancer, wild-type); assay: cytotoxic MTS test, HCT116; settings: HCT-116, HCT116 cells
Source text: as §1

[6] = test system: HCT116p53−/− (human colorectal cancer, mutant p53); assay: cytotoxic MTS test, HCT116p53; settings: HCT116p53 cells
Source text: as §1

[7] = test system: K562 (human acute myeloid leukemia); assay: cytotoxic MTS test, K562; settings: K562 cells
Source text: as §1

[8] = test system: K562-Tax (human acute myeloid leukemia, paclitaxel resistant subline); assay: cytotoxic MTS test, K562-TAX; settings: K562-TAX cells
Source text: as §1

[9] = test system: MRC-5 (normal human fibroblasts); assay: cytotoxic MTS test, MRC-5; settings: MRC5, MRC-5 cells
[10] = test system: U2OS (human bone osteosarcoma); assay: cytotoxic MTS test, U2OS; settings: U2OS cells
Source text: as §1

[11] = test system: Hep G2; assay: cytotoxic MTS test, Hep G2; settings: Homo sapiens, HepG2; Hep G2 cells
[12] = test system: HL 60; assay: cytotoxic MTS test, HL 60; settings: Homo sapiens; HL 60 cells
[13] = test system: CEM (T-lymfoblastic leukemia); assay: cytotoxic MTS test, CEM; settings: Homo sapiens, CCRF-CEM; CEM cells
Source text: as §1

[14] = test system: HeLa; assay: cytotoxic MTS test, HeLa; settings: Homo sapiens; HeLa cells

Compound	IC50 [1] [µM]	IC50 [2] [µM]	IC50 [3] [nM]	IC50 [4] [µM]	IC50 [5] [µM]	IC50 [6] [µM]	IC50 [7] [µM]	IC50 [8] [µM]	IC50 [9] [µM]	IC50 [10] [µM]	IC50 [11] [µM]	IC50 [12] [µM]	IC50 [13] [µM]	IC50 [14] [µM]
CN(C)c1ncnc2c1c1ccncc1n2[C@@H]1O[C@H](CO)[C@@H](O)[C@H]1O [Compound 2e, 4-(dimethylamino)-9-(β-D-ribofuranosyl)-9H-pyrido[4′,3′:4,5]pyrrolo[2,3-d]pyrimidine]	> 50	> 50	> 50000	> 50	> 50	> 50	> 50	> 50	> 50	> 50	> 50	> 50	> 50	> 50
COc1ncnc2c1c1ccncc1n2[C@@H]1O[C@H](CO)[C@@H](O)[C@H]1O [Compound 2a, 4-methoxy-9-(β-D-ribofuranosyl)-9H-pyrido[4′,3′:4,5]pyrrolo[2,3-d]pyrimidine]	> 50	> 50	200 to 900	0.9 to 10	0.9 to 10	0.9 to 10	0.9 to 10	0.9 to 10	> 50	0.9 to 10	0.9 to 10	0.2 to 0.9	0.9 to 10	0.9 to 10
OC[C@H]1O[C@@H](n2c3cccnc3c3c(-c4ccco4)ncnc32)[C@H](O)[C@@H]1O [Compound 1f, 4-(furan-2-yl)-9-(β-D-ribofuranosyl)-9H-pyrido[2′,3′:4,5]pyrrolo[2,3-d]pyrimidine]	> 50	> 50	> 50000	> 50	> 50	> 50	> 50	> 50	> 50	> 50	> 50	> 50	> 50	> 50
OC[C@H]1O[C@@H](n2c3cccnc3c3c(-c4ccsc4)ncnc32)[C@H](O)[C@@H]1O [Compound 1h, 4-(thiophen-3-yl)-9-(β-D-ribofuranosyl)-9H-pyrido[2′,3′:4,5]pyrrolo[2,3-d]pyrimidine]	> 50	> 50	> 50000	> 50	> 50	> 50	> 50	> 50	> 50	> 50	> 50	> 50	> 50	> 50
CN(C)c1ncnc2c1c1ncccc1n2[C@@H]1O[C@H](CO)[C@@H](O)[C@H]1O [Compound 1e, 4-(dimethylamino)-9-(β-D-ribofuranosyl)-9H-pyrido[2′,3′:4,5]pyrrolo[2,3-d]pyrimidine]	> 50	> 50	> 50000	> 50	> 50	> 50	> 50	> 50	> 50	> 50	> 50	> 50	> 50	> 50
OC[C@H]1O[C@@H](n2c3cnccc3c3c(-c4ccsc4)ncnc32)[C@H](O)[C@@H]1O [Compound 2h, 4-(thiophen-3-yl)-9-(β-D-ribofuranosyl)-9H-pyrido[4′,3′:4,5]pyrrolo[2,3-d]pyrimidine]	> 50	> 50	> 50000	> 50	> 50	> 50	> 50	> 50	> 50	> 50	> 50	> 50	> 50	> 50
Nc1ncnc2c1c1ncccc1n2[C@@H]1O[C@H](CO)[C@@H](O)[C@H]1O [Compound 1c, 4-amino-9-(β-D-ribofuranosyl)-9H-pyrido[2′,3′:4,5]pyrrolo[2,3-d]pyrimidine]	> 50	0.9 to 10	200 to 900	> 50	25 to 50	25 to 50	25 to 50	> 50	> 50	0.9 to 10	0.9 to 10	0.2 to 0.9	> 50	> 50
Nc1ncnc2c1c1ccncc1n2[C@@H]1O[C@H](CO)[C@@H](O)[C@H]1O [Compound 2c, 4-amino-9-(β-D-ribofuranosyl)-9H-pyrido[4′,3′:4,5]pyrrolo[2,3-d]pyrimidine]	0.9 to 10	0.9 to 10	200 to 900	0.9 to 10	0.2 to 0.9	0.2 to 0.9	0.2 to 0.9	0.9 to 10	> 50	0.2 to 0.9	0.2 to 0.9	0.2 to 0.9	0.2 to 0.9	0.9 to 10
OC[C@H]1O[C@@H](n2c3cnccc3c3c(-c4cc5ccccc5o4)ncnc32)[C@H](O)[C@@H]1O [Compound 2i, 4-(benzofuran-2-yl)-9-(β-D-ribofuranosyl)-9H-pyrido[4′,3′:4,5]pyrrolo[2,3-d]pyrimidine]	10 to 25	25 to 50	900 to 10000	10 to 25	0.9 to 10	10 to 25	10 to 25	10 to 25	10 to 25	10 to 25	> 50	> 50	> 50	> 50
OC[C@H]1O[C@@H](n2c3cnccc3c3c(-c4ccco4)ncnc32)[C@H](O)[C@@H]1O [Compound 2f, 4-(furan-2-yl)-9-(β-D-ribofuranosyl)-9H-pyrido[4′,3′:4,5]pyrrolo[2,3-d]pyrimidine]	> 50	> 50	> 50000	> 50	> 50	> 50	> 50	> 50	> 50	> 50	> 50	> 50	> 50	> 50
CSc1ncnc2c1c1ccncc1n2[C@@H]1O[C@H](CO)[C@@H](O)[C@H]1O [Compound 2b, 4-(methylsulfanyl)-9-(β-D-ribofuranosyl)-9H-pyrido[4′,3′:4,5]pyrrolo[2,3-d]pyrimidine]	10 to 25	> 50	200 to 900	0.9 to 10	0.2 to 0.9	0.2 to 0.9	0.2 to 0.9	0.9 to 10	> 50	0.2 to 0.9	0.9 to 10	0.2 to 0.9	0.2 to 0.9	0.9 to 10
OC[C@H]1O[C@@H](n2c3cccnc3c3c(-c4ccoc4)ncnc32)[C@H](O)[C@@H]1O [Compound 1g, 4-(furan-3-yl)-9-(β-D-ribofuranosyl)-9H-pyrido[2′,3′:4,5]pyrrolo[2,3-d]pyrimidine]	> 50	> 50	> 50000	> 50	> 50	> 50	> 50	> 50	> 50	> 50	> 50	> 50	> 50	> 50
COc1ncnc2c1c1ncccc1n2[C@@H]1O[C@H](CO)[C@@H](O)[C@H]1O [Compound 1a, 4-methoxy-9-(β-D-ribofuranosyl)-9H-pyrido[2′,3′:4,5]pyrrolo[2,3-d]pyrimidine]	> 50	> 50	> 50000	> 50	> 50	> 50	> 50	> 50	> 50	> 50	> 50	> 50	> 50	> 50
Cc1ncnc2c1c1ncccc1n2[C@@H]1O[C@H](CO)[C@@H](O)[C@H]1O [Compound 1d, 4-methyl-9-(β-D-ribofuranosyl)-9H-pyrido[2′,3′:4,5]pyrrolo[2,3-d]pyrimidine]	> 50	> 50	200 to 900	> 50	> 50	> 50	10 to 25	> 50	> 50	0.9 to 10	> 50	> 50	> 50	> 50
